# What was measured:
# [1] = target: hGYS1 enzyme (recombinant hGYS1/GN1 protein) (Homo sapiens (Human), UniProt P13807); assay: GYS1 coupled enzyme assay (PK/LDH); assay type: biochemical; conditions: hGYS1/GN1 50 nM, UDP-Glucose 0.8 mM, G6P 1 mM; geometric mean of at least 2 runs
# [2] = target: hGYS2 enzyme (recombinant hGYS2/GN1 protein) (Homo sapiens (Human), UniProt P54840); assay: GYS2 coupled enzyme assay (PK/LDH); assay type: biochemical; conditions: geometric mean of at least 2 assay runs on separate days, read-out: Avg_IC50
# hGYS2 enzyme (recombinant hGYS2/GN1 protein), sequence (P54840 whole entry): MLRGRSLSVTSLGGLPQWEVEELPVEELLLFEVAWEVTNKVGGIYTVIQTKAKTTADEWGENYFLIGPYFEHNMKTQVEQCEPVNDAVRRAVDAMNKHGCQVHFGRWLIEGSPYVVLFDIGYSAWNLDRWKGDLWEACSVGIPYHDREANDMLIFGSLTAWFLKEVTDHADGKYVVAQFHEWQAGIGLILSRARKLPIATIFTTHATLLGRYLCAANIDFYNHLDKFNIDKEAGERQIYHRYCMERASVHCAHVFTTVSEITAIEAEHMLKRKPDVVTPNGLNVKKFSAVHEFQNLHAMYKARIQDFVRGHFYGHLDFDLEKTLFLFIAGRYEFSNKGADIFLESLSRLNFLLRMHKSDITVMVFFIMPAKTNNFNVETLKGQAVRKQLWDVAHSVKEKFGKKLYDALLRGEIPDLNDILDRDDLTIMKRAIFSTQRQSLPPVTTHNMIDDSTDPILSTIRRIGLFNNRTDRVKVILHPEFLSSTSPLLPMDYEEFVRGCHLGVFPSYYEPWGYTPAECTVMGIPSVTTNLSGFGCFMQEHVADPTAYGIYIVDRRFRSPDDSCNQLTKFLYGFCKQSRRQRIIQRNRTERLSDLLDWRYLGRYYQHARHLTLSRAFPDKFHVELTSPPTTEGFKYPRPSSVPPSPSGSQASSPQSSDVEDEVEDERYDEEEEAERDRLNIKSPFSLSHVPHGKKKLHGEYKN
# hGYS2 enzyme (recombinant hGYS2/GN1 protein), sequence (P46976 whole entry partner): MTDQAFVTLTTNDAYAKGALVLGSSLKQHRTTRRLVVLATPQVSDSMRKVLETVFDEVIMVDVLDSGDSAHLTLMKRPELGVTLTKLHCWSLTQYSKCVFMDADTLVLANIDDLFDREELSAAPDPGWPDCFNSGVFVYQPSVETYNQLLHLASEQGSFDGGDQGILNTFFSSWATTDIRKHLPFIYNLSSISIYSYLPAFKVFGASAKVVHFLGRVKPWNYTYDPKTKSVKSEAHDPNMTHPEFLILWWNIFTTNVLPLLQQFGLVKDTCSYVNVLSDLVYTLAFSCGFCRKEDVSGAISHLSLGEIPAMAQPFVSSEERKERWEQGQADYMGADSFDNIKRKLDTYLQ
# Summary of the method: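 Continuous PK/LDH-coupled readout of NADH loss at 340 nm over 10 min, with 200 nM hGYS2/GN1 and 2 mM each of UDP-glucose, glucose-6-phosphate and PEP, in 50 mM Tris pH 7.5 with 0.2% glycogen and 2.5% DMSO. Slopes were normalized to controls and IC50s fit to a Hill curve from duplicates.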
# [3] = tested on: hGYS1 enzyme / glycogen synthesis in HeLa cells; assay: GYS1 cell based assay (glycogen synthesis, Glucose-glo); design: species or system human; conditions: Homo sapiens, HeLa, 24 h, 24 h incubation, 20 mM glucose, geometric mean of at least 2 runs
# Summary of the method: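 HeLa cells starved 24 h in medium containing only 1× Glutamax were plated onto compound in medium with 20 mM glucose (1% DMSO final) for 24 h, 37 °C, 5% CO2. Acid lysates were Tris-quenched, glucoamylase-digested (pH 5.3, 1 h, 37 °C) and read by Glucose-glo luminescence. IC50 came from Hill fits, as geometric mean of ≥2 runs.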
# hGYS1 enzyme (recombinant hGYS1/GN1 protein), sequence (P13807 whole entry): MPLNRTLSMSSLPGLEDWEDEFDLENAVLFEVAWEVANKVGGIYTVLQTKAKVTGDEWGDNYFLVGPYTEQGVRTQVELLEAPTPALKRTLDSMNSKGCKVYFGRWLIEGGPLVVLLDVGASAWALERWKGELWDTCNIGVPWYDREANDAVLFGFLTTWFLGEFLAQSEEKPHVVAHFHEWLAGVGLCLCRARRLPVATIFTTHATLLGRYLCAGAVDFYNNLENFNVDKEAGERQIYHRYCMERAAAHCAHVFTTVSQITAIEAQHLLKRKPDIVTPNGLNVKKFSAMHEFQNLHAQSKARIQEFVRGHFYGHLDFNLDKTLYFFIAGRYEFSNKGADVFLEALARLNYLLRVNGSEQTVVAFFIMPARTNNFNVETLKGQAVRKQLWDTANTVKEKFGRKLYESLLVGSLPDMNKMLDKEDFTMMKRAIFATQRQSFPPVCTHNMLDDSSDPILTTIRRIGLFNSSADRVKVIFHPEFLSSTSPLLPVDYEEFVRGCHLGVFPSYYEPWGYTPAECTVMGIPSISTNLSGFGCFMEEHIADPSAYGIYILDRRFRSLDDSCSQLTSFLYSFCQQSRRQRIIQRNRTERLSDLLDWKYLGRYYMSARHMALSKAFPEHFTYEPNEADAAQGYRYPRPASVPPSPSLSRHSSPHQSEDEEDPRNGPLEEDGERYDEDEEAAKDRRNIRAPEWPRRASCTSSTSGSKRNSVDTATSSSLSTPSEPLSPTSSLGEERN
# hGYS1 enzyme (recombinant hGYS1/GN1 protein), sequence (P46976 whole entry partner): as the sequence (P46976 whole entry partner) above
IC50 [1],IC50 [2],IC50 [3],Structure (SMILES)
18 nM,> 100000 nM,250 nM,"CC(C)c1ccc([C@@H](NC(=O)[C@@H]2C[C@@H](F)[C@H](C)N2C(=O)Cc2cnn[nH]2)c2ccccc2)cc1F [Compound 340, (2S,4R,5S)-4-fluoro-N-[(S)-[3-fluoro-4-(propan-2-yl)phenyl](phenyl)methyl]-5-methyl-1-[2-(1H-1,2,3-triazol-5-yl)acetyl]pyrrolidine-2-carboxamide]"
34 nM,> 100000 nM,370 nM,"CC(C)c1ccc([C@@H](NC(=O)[C@@H]2C[C@@H](F)CN2C(=O)Cc2ccnnc2)c2ccccc2)cc1F [Compound 342, (2S,4R)-4-fluoro-N-[(S)-[3-fluoro-4-(propan-2-yl)phenyl](phenyl)methyl]-1-[2-(pyridazin-4-yl)acetyl]pyrrolidine-2-carboxamide]"
27 nM,> 100000 nM,460 nM,CC(C)c1ccc([C@@H](NC(=O)[C@@H]2C[C@@H](F)CN2C(=O)Cc2cccnn2)c2ccccc2)cc1F [Compound 343]
30 nM,> 100000 nM,400 nM,"CC(C)c1ccc([C@@H](NC(=O)[C@@H]2C[C@@H](F)CN2C(=O)Cc2ccncc2)c2ccccc2)cc1F [Compound 347, (2S,4R)-4-fluoro-N-[(S)-[3-fluoro-4-(propan-2-yl)phenyl](phenyl)methyl]-1-[2-(pyridin-4-yl)acetyl]pyrrolidine-2-carboxamide]"
24 nM,> 100000 nM,270 nM,"CC(C)c1ccc([C@@H](NC(=O)[C@@H]2C[C@@H](F)CN2C(=O)Cc2cccnc2)c2ccccc2)cc1F [Compound 348, (2S,4R)-4-fluoro-N-[(S)-[3-fluoro-4-(propan-2-yl)phenyl](phenyl)methyl]-1-[2-(pyridin-3-yl)acetyl]pyrrolidine-2-carboxamide]"
25 nM,> 100000 nM,400 nM,"CC(C)c1ccc([C@@H](NC(=O)[C@@H]2C[C@@H](F)CN2C(=O)Cc2ccccn2)c2ccccc2)cc1F [Compound 349, (2S,4R)-4-fluoro-N-[(S)-[3-fluoro-4-(propan-2-yl)phenyl](phenyl)methyl]-1-[2-(pyridin-2-yl)acetyl]pyrrolidine-2-carboxamide]"
8 nM,> 100000 nM,130 nM,"Cc1nn(C)c(C)c1CC(=O)N1C[C@H](F)C[C@H]1C(=O)N[C@@H](c1ccccc1)c1ccc(C(C)C)c(F)c1 [Compound 351, (2S,4R)-4-fluoro-N-[(S)-[3-fluoro-4-(propan-2-yl)phenyl](phenyl)methyl]-1-[2-(1,3,5-trimethyl-1H-pyrazol-4-yl)acetyl]pyrrolidine-2-carboxamide]"
5 nM,> 100000 nM,110 nM,"Cc1cn(CC(=O)N2C[C@H](F)C[C@H]2C(=O)N[C@@H](c2ccccc2)c2ccc(C(C)C)c(F)c2)c(=O)[nH]c1=O [Compound 352, (2S,4R)-4-fluoro-N-[(S)-[3-fluoro-4-(propan-2-yl)phenyl](phenyl)methyl]-1-[2-(5-methyl-2,4-dioxo-1,2,3,4-tetrahydropyrimidin-1-yl)acetyl]pyrrolidine-2-carboxamide]"
7 nM,> 100000 nM,90 nM,"Cc1cn(CC(=O)N2C[C@H](F)C[C@H]2C(=O)N[C@@H](c2ccccc2)c2ccc(C(C)C)c(F)c2)c(=O)n(C)c1=O [Compound 353, (2S,4R)-1-[2-(3,5-dimethyl-2,4-dioxo-1,2,3,4-tetrahydropyrimidin-1-yl)acetyl]-4-fluoro-N-[(S)-[3-fluoro-4-(propan-2-yl)phenyl](phenyl)methyl] pyrrolidine-2-carboxamide]"
5 nM,> 100000 nM,60 nM,"CC(C)c1ccc([C@@H](NC(=O)[C@@H]2C[C@@H](F)CN2C(=O)Cn2cnc3ccccc32)c2ccccc2)cc1F [Compound 354, (2S,4R)-1-[2-(1H-1,3-benzodiazol-1-yl)acetyl]-4-fluoro-N-[(S)-[3-fluoro-4-(propan-2-yl)phenyl](phenyl)methyl] pyrrolidine-2-carboxamide]"
18 nM,> 100000 nM,160 nM,"CC(C)c1ccc([C@@H](NC(=O)[C@@H]2C[C@@H](F)CN2C(=O)Cc2cnn(C)c2)c2ccccc2)cc1F [Compound 355, (2S,4R)-4-fluoro-N-[(S)-[3-fluoro-4-(propan-2-yl)phenyl](phenyl)methyl]-1-[2-(1-methyl-1H-pyrazol-4-yl)acetyl]pyrrolidine-2-carboxamide]"
13 nM,> 100000 nM,190 nM,"CC(C)c1ccc([C@@H](NC(=O)[C@@H]2C[C@@H](F)CN2C(=O)Cc2cnc3ccccn23)c2ccccc2)cc1F [Compound 356, (2S,4R)-4-fluoro-N-[(S)-[3-fluoro-4-(propan-2-yl)phenyl](phenyl)methyl]-1-(2-{imidazo[1,2-a]pyridin-3-yl}acetyl)pyrrolidine-2-carboxamide]"
21 nM,> 100000 nM,220 nM,"CC(C)c1ccc([C@@H](NC(=O)[C@@H]2C[C@@H](F)CN2C(=O)Cc2ccc3ncccc3c2)c2ccccc2)cc1F [Compound 357, (2S,4R)-4-fluoro-N-[(S)-[3-fluoro-4-(propan-2-yl)phenyl](phenyl)methyl]-1-[2-(quinolin-6-yl)acetyl]pyrrolidine-2-carboxamide]"
11 nM,> 100000 nM,190 nM,"CC(C)c1ccc([C@@H](NC(=O)[C@@H]2C[C@@H](F)CN2C(=O)Cc2ccc3ncnn3c2)c2ccccc2)cc1F [Compound 358, (2S,4R)-4-fluoro-N-[(S)-[3-fluoro-4-(propan-2-yl)phenyl](phenyl)methyl]-1-(2-{[1,2,4]triazolo[1,5-a]pyridin-6-yl}acetyl)pyrrolidine-2-carboxamide]"
63 nM,> 100000 nM,960 nM,CC(C)c1ccc([C@@H](NC(=O)[C@@H]2C[C@@H](F)CN2C(=O)Cn2nnnc2C(F)(F)F)c2ccccc2)cc1F [Compound 359]
19 nM,> 100000 nM,310 nM,"CC(C)c1ccc([C@@H](NC(=O)[C@@H]2C[C@@H](F)CN2C(=O)COC(=O)N(C)C)c2ccccc2)cc1F [Compound 360, 2-[(2S,4R)-4-fluoro-2-{[(S)-[3-fluoro-4-(propan-2-yl)phenyl](phenyl)methyl]carbamoyl}pyrrolidin-1-yl]-2-oxoethyl N,N-dimethylcarbamate]"
90 nM,> 100000 nM,1150 nM,"CC(C)c1ccc([C@@H](NC(=O)[C@@H]2C[C@@H](F)CN2C(=O)CN(C)C(=O)N(C)C)c2ccccc2)cc1F [Compound 362, (2S,4R)-1-{2-[(dimethylcarbamoyl) (methyl)amino]acetyl}-4-fluoro-N-[(S)-[3-fluoro-4-(propan-2-yl)phenyl](phenyl)methyl] pyrrolidine-2-carboxamide]"
19 nM,> 100000 nM,320 nM,"CC(C)c1ccc([C@@H](NC(=O)[C@@H]2C[C@@H](F)CN2C(=O)COC(=O)N2CCNCC2)c2ccccc2)cc1F [Compound 363, 2-[(2S,4R)-4-fluoro-2-{[(S)-[3-fluoro-4-(propan-2-yl)phenyl](phenyl)methyl]carbamoyl}pyrrolidin-1-yl]-2-oxoethyl piperazine-1-carboxylate]"
80 nM,> 100000 nM,480 nM,"CC(C)c1ccc([C@@H](NC(=O)[C@@H]2C[C@@H](F)CN2C(=O)COC(=O)N2CCN(C(=O)OC(C)(C)C)CC2)c2ccccc2)cc1F [Compound 364, 1-tert-butyl 4-{2-[(2S,4R)-4-fluoro-2-{[(S)-[3-fluoro-4-(propan-2-yl)phenyl](phenyl)methyl]carbamoyl}pyrrolidin-1-yl]-2-oxoethyl} piperazine-1,4-dicarboxylate]"
7 nM,> 100000 nM,1190 nM,"CC(C)c1ccc([C@@H](NC(=O)[C@@H]2C[C@@H](F)CN2C(=O)CNC(=O)N2CCNCC2)c2ccccc2)cc1F [Compound 365, N-{2-[(2S,4R)-4-fluoro-2-{[(S)-[3-fluoro-4-(propan-2-yl)phenyl](phenyl)methyl]carbamoyl}pyrrolidin-1-yl]-2-oxoethyl}piperazine-1-carboxamide]"
16 nM,> 100000 nM,470 nM,"Cc1nn[nH]c1CC(=O)N1C[C@H](F)C[C@H]1C(=O)N[C@@H](c1ccccc1)c1ccc(C(C)C)c(F)c1 [Compound 367, (2S,4R)-4-fluoro-N-[(S)-[3-fluoro-4-(propan-2-yl)phenyl](phenyl)methyl]-1-[2-(4-methyl-1H-1,2,3-triazol-5-yl)acetyl]pyrrolidine-2-carboxamide]"
5 nM,> 82300 nM,150 nM,"CC(C)c1ccc([C@@H](NC(=O)[C@@H]2C[C@@H](F)CN2C(=O)Cc2[nH]nnc2C(F)(F)F)c2ccccc2)cc1F [Compound 368, (2S,4R)-4-fluoro-N-[(S)-[3-fluoro-4-(propan-2-yl)phenyl](phenyl)methyl]-1-{2-[4-(trifluoromethyl)-1H-1,2,3-triazol-5-yl]acetyl}pyrrolidine-2-carboxamide]"

# Reference: patent publication US11814367B2, “Inhibitors of glycogen synthase 1 (GYS1) and methods of use thereof” (Maze Therapeutics, Inc., priority 2021, dated 2023)
